{"source": "patent US20230085307A1", "about": "“PYRIDAZINONE COMPOUND AND HERBICIDE” (NISSAN CHEMICAL CORPORATION, priority 2019, published 2023)", "key": {"[1]": {"tested_on": "green foxtail", "experiment": "Test Example 4: herbicidal effect by soil treatment (Table 19, symbol G)", "type": "in vivo, green foxtail (Setaria viridis)", "details": "amount of applied herbicide 320 g/ha", "outline": "(§1)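 Applied as a water-diluted emulsion, the compound was sprayed onto soil covering newly sown seeds. Evaluation came three weeks after application, in a greenhouse held at 25° C. to 30° C.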"}, "[2]": {"tested_on": "velvetleaf", "experiment": "Test Example 4: herbicidal effect by soil treatment (Table 19, symbol M)", "type": "in vivo, velvetleaf (Abutilon theophrasti)", "details": "amount of applied herbicide 320 g/ha", "outline": "as §1"}, "[3]": {"tested_on": "Japanese bulrush", "experiment": "Test Example 1: herbicidal activity, application before weed generation under submerged conditions (Table 16, symbol B)", "type": "in vivo, Japanese bulrush (Schoenoplectus juncoides)", "details": "320 g/ha applied herbicide", "outline": "(§2)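 Emulsion formulation, water-diluted to set dose, was put onto the flooded surface (4 cm depth, alluvial soil) the same day weeds were sown and 2.5-leaf rice transplanted. After 3 weeks at 25-30 °C under glass, each species was rated 0 (≤5% kill) to 5 (≥90% kill).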"}, "[4]": {"tested_on": "windgrass", "experiment": "Test Example 4: herbicidal effect by soil treatment (Table 19, symbol L)", "type": "in vivo, windgrass (Apera spica-venti)", "details": "amount of applied herbicide 320 g/ha", "outline": "as §1"}, "[5]": {"tested_on": "redroot pigweed", "experiment": "Test Example 4: herbicidal effect by soil treatment (Table 19, symbol N)", "type": "in vivo, redroot pigweed (Amaranthus retroflexus)", "details": "amount of applied herbicide 320 g/ha", "outline": "as §1"}, "[6]": {"tested_on": "southern crabgrass", "experiment": "Test Example 4: herbicidal effect by soil treatment (Table 19, symbol F)", "type": "in vivo, southern crabgrass (Digitaria ciliaris)", "details": "amount of applied herbicide 320 g/ha", "outline": "as §1"}, "[7]": {"tested_on": "blackgrass", "experiment": "Test Example 4: herbicidal effect by soil treatment (Table 19, symbol J)", "type": "in vivo, blackgrass (Alopecurus myosuroides)", "details": "amount of applied herbicide 320 g/ha", "outline": "as §1"}, "[8]": {"tested_on": "lambsquarters", "experiment": "Test Example 4: herbicidal effect by soil treatment (Table 19, symbol O)", "type": "in vivo, lambsquarters (Chenopodium album)", "details": "amount of applied herbicide 320 g/ha", "outline": "as §1"}, "[9]": {"tested_on": "oval-leafed pondweed", "experiment": "Test Example 1: herbicidal activity, application before weed generation under submerged conditions (Table 16, symbol C)", "type": "in vivo, oval-leafed pondweed (Monochoria vaginalis)", "details": "320 g/ha applied herbicide", "outline": "as §2"}, "[10]": {"tested_on": "oval-leafed pondweed", "experiment": "Test Example 2: herbicidal activity, application during weed generation under submerged conditions (Table 17, symbol C)", "type": "in vivo, oval-leafed pondweed (Monochoria vaginalis)", "details": "AAH 320 g/ha; application during weed generation, submerged conditions", "outline": "(§3)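 In this pot test, flooded alluvial soil (water depth 4 cm) holds all three species sown as a mixture. Once seedlings have one to two leaves, the compound's emulsion, thinned with water to the intended dose, is poured on the water; grading follows after three weeks on the earlier criteria.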"}, "[11]": {"tested_on": "late watergrass", "experiment": "Test Example 2: herbicidal activity, application during weed generation under submerged conditions (Table 17, symbol A)", "type": "in vivo, late watergrass (Echinochloa oryzicola)", "details": "AAH 320 g/ha; application during weed generation, submerged conditions", "outline": "as §3"}, "[12]": {"tested_on": "Japanese bulrush", "experiment": "Test Example 2: herbicidal activity, application during weed generation under submerged conditions (Table 17, symbol B)", "type": "in vivo, Japanese bulrush (Schoenoplectus juncoides)", "details": "AAH 320 g/ha; application during weed generation, submerged conditions", "outline": "as §3"}, "[13]": {"tested_on": "persian speedwell", "experiment": "Test Example 4: herbicidal effect by soil treatment (Table 19, symbol R)", "type": "in vivo, Persian speedwell (Veronica persica)", "details": "amount of applied herbicide 320 g/ha", "outline": "as §1"}, "[14]": {"tested_on": "chickweed", "experiment": "Test Example 4: herbicidal effect by soil treatment (Table 19, symbol P)", "type": "in vivo, common chickweed (Stellaria media)", "details": "amount of applied herbicide 320 g/ha", "outline": "as §1"}, "[15]": {"tested_on": "barnyard grass", "experiment": "Test Example 4: herbicidal effect by soil treatment (Table 19, symbol H)", "type": "in vivo, barnyard grass (Echinochloa crus-galli)", "details": "amount of applied herbicide 320 g/ha", "outline": "as §1"}, "[16]": {"tested_on": "wild oat", "experiment": "Test Example 4: herbicidal effect by soil treatment (Table 19, symbol I)", "type": "in vivo, wild oat (Avena fatua)", "details": "amount of applied herbicide 320 g/ha", "outline": "as §1"}, "[17]": {"tested_on": "Chinese sprangletop", "experiment": "Test Example 3: herbicidal effect by foliage application, Wagner pot (Table 18, symbol D)", "type": "in vivo, chinese sprangletop (Leptochloa chinensis)", "details": "amount of applied herbicide 320 g/ha", "outline": "(§4)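 Plants were sown in alluvial soil held under 0.1–0.5 cm standing water and grown 14 days in a greenhouse at 25–30 °C. An emulsifiable formulation, water-diluted to the set dose, was then sprayed onto the foliage, and effects were scored three weeks later using previously defined criteria.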"}, "[18]": {"tested_on": "late watergrass", "experiment": "Test Example 1: herbicidal activity, application before weed generation under submerged conditions (Table 16, symbol A)", "type": "in vivo, late watergrass (Echinochloa oryzicola)", "details": "320 g/ha applied herbicide", "outline": "as §2"}, "[19]": {"tested_on": "barnyard grass", "experiment": "Test Example 3: herbicidal effect by foliage application, Wagner pot (Table 18, symbol H)", "type": "in vivo, barnyard grass (Echinochloa crus-galli)", "details": "amount of applied herbicide 320 g/ha", "outline": "as §4"}, "[20]": {"tested_on": "rice flat sedge", "experiment": "Test Example 3: herbicidal effect by foliage application, Wagner pot (Table 18, symbol E)", "type": "in vivo, rice flat sedge (Cyperus iria)", "details": "amount of applied herbicide 320 g/ha", "outline": "as §4"}, "[21]": {"tested_on": "Italian ryegrass", "experiment": "Test Example 4: herbicidal effect by soil treatment (Table 19, symbol K)", "type": "in vivo, Italian ryegrass (Lolium multiflorum)", "details": "amount of applied herbicide 320 g/ha", "outline": "as §1"}}, "data": [{"smiles": "Cc1nn(C)c(=O)c(-c2c(-c3ccc(F)c(Cl)c3)sc3ccc(F)cc23)c1O", "note": "[2-352]", "values": [{"measurement": "herbicidal effect, G: green foxtail", "setting": "[1]", "result": "4 (Herbicidal rate of 70% or more and less than 90%)"}, {"measurement": "herbicidal effect, M: velvetleaf", "setting": "[2]", "result": "3 (Herbicidal rate of 40% or more and less than 70%)"}, {"measurement": "Herbicidal effect on B: Japanese bulrush (grade 0-5)", "setting": "[3]", "result": "2 (Herbicidal rate of 20% or more and less than 40%)"}, {"measurement": "herbicidal effect, L: windgrass", "setting": "[4]", "result": "0 (Herbicidal rate of 5% or less (almost no effect))"}, {"measurement": "herbicidal effect, N: redroot pigweed", "setting": "[5]", "result": "5 (Herbicidal rate of 90% or more (almost completely withered))"}, {"measurement": "herbicidal effect, F: southern crabgrass", "setting": "[6]", "result": "2 (Herbicidal rate of 20% or more and less than 40%)"}, {"measurement": "herbicidal effect, J: blackgrass", "setting": "[7]", "result": "0 (Herbicidal rate of 5% or less (almost no effect))"}, {"measurement": "herbicidal effect, O: lambsquarters", "setting": "[8]", "result": "4 (Herbicidal rate of 70% or more and less than 90%)"}, {"measurement": "Herbicidal effect on C: oval-leafed pondweed (grade 0-5)", "setting": "[9]", "result": "2 (Herbicidal rate of 20% or more and less than 40%)"}, {"measurement": "herbicidal effect rating, C: oval-leafed pondweed", "setting": "[10]", "result": "0 (Herbicidal rate of 5% or less (almost no effect))"}, {"measurement": "herbicidal effect rating, A: late watergrass", "setting": "[11]", "result": "0 (Herbicidal rate of 5% or less (almost no effect))"}, {"measurement": "herbicidal effect rating, B: Japanese bulrush", "setting": "[12]", "result": "2 (Herbicidal rate of 20% or more and less than 40%)"}, {"measurement": "herbicidal effect, R: persian speedwell", "setting": "[13]", "result": "4 (Herbicidal rate of 70% or more and less than 90%)"}, {"measurement": "herbicidal effect, P: chickweed", "setting": "[14]", "result": "3 (Herbicidal rate of 40% or more and less than 70%)"}, {"measurement": "herbicidal effect, H: barnyard grass", "setting": "[15]", "result": "3 (Herbicidal rate of 40% or more and less than 70%)"}, {"measurement": "herbicidal effect, I: wild oat", "setting": "[16]", "result": "0 (Herbicidal rate of 5% or less (almost no effect))"}, {"measurement": "herbicidal effect on D: Chinese sprangletop", "setting": "[17]", "result": "5 (Herbicidal rate of 90% or more (almost completely withered))"}, {"measurement": "Herbicidal effect on A: late watergrass (grade 0-5)", "setting": "[18]", "result": "3 (Herbicidal rate of 40% or more and less than 70%)"}, {"measurement": "herbicidal effect on H: barnyard grass", "setting": "[19]", "result": "5 (Herbicidal rate of 90% or more (almost completely withered))"}, {"measurement": "herbicidal effect on E: rice flat sedge", "setting": "[20]", "result": "5 (Herbicidal rate of 90% or more (almost completely withered))"}, {"measurement": "herbicidal effect, K: Italian ryegrass", "setting": "[21]", "result": "4 (Herbicidal rate of 70% or more and less than 90%)"}]}]}
